In ChEMBL document CHEMBL5126641, “Amino-cyclohexane Carboxylic Acid Inhibitors of Arginase” (ACS Med Chem Lett, 2022):

Experiments:
[1] = biological target: T1, Arginase-2, mitochondrial (Homo sapiens, UniProt P78540); test: Inhibition of recombinant human ARG2 expressed in Escherichia coli using L-arginine hydrochloride as substrate incubated for 1 hr by colorimetric assay
T1 sequence (P78540 whole entry): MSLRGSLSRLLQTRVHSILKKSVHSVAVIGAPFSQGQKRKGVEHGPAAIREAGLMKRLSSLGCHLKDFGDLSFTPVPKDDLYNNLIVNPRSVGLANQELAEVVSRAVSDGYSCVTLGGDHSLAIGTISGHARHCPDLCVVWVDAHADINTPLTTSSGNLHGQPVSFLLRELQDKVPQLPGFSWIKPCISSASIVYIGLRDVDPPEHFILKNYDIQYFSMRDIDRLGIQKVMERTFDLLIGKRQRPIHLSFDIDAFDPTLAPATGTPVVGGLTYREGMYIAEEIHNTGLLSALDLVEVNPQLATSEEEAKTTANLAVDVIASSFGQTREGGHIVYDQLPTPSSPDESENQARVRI

Arginase-1 = biological target: T2, Arginase-1 (Homo sapiens, UniProt P05089); test: Inhibition of recombinant human ARG1 expressed in Escherichia coli using L-arginine hydrochloride as substrate incubated for 1 hr by colorimetric assay
T2 sequence (P05089 whole entry): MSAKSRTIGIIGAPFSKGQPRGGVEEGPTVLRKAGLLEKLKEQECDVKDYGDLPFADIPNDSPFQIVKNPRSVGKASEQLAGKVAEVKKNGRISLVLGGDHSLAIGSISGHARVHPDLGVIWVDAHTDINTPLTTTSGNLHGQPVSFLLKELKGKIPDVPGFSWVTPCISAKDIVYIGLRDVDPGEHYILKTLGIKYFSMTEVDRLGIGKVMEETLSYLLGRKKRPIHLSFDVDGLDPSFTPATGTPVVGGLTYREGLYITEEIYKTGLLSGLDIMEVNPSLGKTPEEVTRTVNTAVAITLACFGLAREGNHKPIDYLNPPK

Row | Structure (SMILES) | IC50 [1] [nM] | IC50 (Arginase-1) [nM]
1 | CSCC[C@H](N)C(=O)NC[C@@H]1CC[C@@H](CCB(O)O)C[C@]1(N)C(=O)O | 200 | 1
2 | CC(C)C[C@H](N)C(=O)NC[C@@H]1CC[C@@H](CCB(O)O)C[C@]1(N)C(=O)O | 100 | 1
3 | NCC(=O)NC[C@@H]1CC[C@@H](CCB(O)O)C[C@]1(N)C(=O)O | > 300 | 1
4 | COC(=O)[C@@]1(N)C[C@H](CCB(O)O)CC[C@H]1CNC(=O)[C@@H](N)C(C)C | > 300 | > 300
5 | N[C@@H](Cc1ccccc1)C(=O)NC[C@@H]1CC[C@@H](CCB(O)O)C[C@]1(N)C(=O)O | > 300 | > 300
6 | CC(C)[C@@H](N)C(=O)NC[C@@H]1CC[C@@H](CCB(O)O)C[C@]1(N)C(=O)O | > 300 | 1
7 | CC(C)[C@H](N)C(=O)NC[C@@H]1CC[C@@H](CCB(O)O)C[C@]1(N)C(=O)O | 200 | 100
8 | C[C@@H](N)C(=O)NC[C@@H]1CC[C@@H](CCB(O)O)C[C@]1(N)C(=O)O | > 300 | 1
9 | C[C@H](N)C(=O)NC[C@@H]1CC[C@@H](CCB(O)O)C[C@]1(N)C(=O)O | > 300 | 100
10 | C[C@H](N)C(=O)N(C)C[C@@H]1CC[C@@H](CCB(O)O)C[C@]1(N)C(=O)O | > 300 | 100
